The text below walks through data of patent US20230079819A1, “COMPOUNDS AND USES THEREOF” (Foghorn Therapeutics Inc., priority 2019, published 2023).

The target of one assay is T1, BRM (Homo sapiens, UniProt P51531).
T1 construct: made in house; host or cells: High Five insect cells
The assay can be described thus: ATPase catalytic activity of BRM, ADP-Glo in vitro biochemical assay. Conditions: ATPase catalytic activity, 30 nM BRM, 400 μM ATP, read-out: BRM IP50 (μM)*.

For the next assay, the target named is T2, BRG-1 (Homo sapiens, UniProt P51532).
T2 construct: made in house; host or cells: High Five insect cells
T2 sequence (P51532 whole entry): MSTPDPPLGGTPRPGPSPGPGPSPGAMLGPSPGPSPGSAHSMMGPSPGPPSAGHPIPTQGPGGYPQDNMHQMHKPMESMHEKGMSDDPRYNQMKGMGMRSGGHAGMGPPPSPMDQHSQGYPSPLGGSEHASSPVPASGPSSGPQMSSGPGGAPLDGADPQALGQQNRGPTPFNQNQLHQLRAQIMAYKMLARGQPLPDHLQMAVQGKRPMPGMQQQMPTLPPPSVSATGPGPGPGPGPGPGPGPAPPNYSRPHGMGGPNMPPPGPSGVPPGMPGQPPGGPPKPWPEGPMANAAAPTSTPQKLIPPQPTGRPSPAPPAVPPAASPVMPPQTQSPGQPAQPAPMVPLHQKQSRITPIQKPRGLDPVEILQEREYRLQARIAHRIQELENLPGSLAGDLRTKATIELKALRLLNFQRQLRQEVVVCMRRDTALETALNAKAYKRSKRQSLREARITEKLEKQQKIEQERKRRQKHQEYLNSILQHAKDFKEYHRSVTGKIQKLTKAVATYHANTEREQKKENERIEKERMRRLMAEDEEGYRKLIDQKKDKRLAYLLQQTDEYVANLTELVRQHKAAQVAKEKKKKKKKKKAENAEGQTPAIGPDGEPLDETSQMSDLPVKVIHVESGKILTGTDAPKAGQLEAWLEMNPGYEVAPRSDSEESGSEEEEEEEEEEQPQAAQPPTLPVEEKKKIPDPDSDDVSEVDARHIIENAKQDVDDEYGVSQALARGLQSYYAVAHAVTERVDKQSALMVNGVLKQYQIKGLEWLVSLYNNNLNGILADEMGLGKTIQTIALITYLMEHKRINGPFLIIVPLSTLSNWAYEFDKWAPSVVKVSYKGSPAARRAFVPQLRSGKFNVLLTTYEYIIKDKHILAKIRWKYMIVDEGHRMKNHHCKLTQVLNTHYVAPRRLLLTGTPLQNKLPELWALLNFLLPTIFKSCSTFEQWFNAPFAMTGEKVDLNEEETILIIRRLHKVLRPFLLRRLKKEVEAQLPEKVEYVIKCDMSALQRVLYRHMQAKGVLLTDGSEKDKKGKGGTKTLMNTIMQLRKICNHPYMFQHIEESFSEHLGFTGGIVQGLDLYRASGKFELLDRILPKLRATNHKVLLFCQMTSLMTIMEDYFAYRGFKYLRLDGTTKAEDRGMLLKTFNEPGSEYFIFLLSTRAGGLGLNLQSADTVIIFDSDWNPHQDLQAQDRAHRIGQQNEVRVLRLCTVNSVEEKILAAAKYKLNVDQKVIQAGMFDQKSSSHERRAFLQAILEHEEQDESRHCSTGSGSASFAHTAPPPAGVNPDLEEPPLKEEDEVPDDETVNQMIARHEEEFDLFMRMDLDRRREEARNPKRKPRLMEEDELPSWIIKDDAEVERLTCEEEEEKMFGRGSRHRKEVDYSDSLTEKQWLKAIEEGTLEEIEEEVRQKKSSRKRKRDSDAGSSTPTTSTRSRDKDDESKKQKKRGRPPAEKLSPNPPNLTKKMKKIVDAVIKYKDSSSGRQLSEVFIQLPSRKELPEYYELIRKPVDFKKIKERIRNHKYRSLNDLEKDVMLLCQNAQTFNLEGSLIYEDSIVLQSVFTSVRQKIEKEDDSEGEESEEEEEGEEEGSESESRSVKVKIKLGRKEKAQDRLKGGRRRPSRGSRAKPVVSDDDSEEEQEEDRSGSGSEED
The assay can be described thus: ATPase catalytic activity of BRG-1, ADP-Glo in vitro biochemical assay. The following applies: ATPase catalytic activity, 30 nM BRG-1, 400 μM ATP, read-out: BRG1 IP50 (μM)*.

Some results are limits rather than exact numbers.

T1 sequence (P51531 whole entry): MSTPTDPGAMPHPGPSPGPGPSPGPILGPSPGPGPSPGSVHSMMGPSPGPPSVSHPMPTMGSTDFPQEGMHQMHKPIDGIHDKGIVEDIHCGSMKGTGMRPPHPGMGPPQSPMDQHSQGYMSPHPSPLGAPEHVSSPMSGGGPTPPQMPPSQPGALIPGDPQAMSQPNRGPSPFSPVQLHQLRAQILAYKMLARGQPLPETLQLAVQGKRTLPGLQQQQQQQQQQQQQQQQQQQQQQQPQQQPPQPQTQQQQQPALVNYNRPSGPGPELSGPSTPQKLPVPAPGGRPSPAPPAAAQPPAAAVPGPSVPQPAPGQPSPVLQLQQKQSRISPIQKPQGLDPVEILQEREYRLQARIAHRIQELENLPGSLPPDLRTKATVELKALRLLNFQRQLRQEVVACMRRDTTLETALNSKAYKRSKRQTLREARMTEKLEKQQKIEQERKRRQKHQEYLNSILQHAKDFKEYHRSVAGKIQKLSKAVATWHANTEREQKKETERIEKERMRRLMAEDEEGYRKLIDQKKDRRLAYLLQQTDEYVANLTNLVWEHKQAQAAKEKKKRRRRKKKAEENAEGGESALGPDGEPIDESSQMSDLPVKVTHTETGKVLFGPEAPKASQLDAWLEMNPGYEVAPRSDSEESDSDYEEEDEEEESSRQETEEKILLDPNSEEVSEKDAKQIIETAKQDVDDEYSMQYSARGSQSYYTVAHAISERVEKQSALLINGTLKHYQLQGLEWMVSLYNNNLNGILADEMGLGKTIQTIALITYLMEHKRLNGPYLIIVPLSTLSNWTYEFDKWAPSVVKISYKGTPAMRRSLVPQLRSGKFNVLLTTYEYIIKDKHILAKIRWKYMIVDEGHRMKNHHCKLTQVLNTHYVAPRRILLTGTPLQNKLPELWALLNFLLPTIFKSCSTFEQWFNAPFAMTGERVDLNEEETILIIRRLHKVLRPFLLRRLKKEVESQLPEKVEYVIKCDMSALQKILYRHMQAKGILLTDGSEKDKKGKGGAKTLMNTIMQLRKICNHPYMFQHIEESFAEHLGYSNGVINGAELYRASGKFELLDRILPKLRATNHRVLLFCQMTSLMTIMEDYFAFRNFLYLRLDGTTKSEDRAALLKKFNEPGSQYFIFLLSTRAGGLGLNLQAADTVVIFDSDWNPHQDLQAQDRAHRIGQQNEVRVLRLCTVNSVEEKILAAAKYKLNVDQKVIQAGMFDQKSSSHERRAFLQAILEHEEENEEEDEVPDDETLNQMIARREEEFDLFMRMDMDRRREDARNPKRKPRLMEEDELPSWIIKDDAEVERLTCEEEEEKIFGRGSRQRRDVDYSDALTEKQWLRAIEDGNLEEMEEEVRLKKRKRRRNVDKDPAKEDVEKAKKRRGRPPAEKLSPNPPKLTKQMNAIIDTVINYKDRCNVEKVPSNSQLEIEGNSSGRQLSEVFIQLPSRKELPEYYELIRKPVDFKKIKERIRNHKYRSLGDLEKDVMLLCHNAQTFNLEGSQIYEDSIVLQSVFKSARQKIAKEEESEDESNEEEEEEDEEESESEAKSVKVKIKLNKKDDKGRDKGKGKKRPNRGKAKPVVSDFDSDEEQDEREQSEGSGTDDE

Take `COC1(C)CCN(c2cccc(-c3csc(NC(=O)CNC(=O)c4ccn(S(C)(=O)=O)c4)n3)c2)CC1` [Compound 96, N-(2-((4-(3-(4-methoxy-4-methylpiperidin-1-yl)phenyl)thiazol-2-yl)amino)-2-oxoethyl)-1-(methylsulfonyl)-1H-pyrrole-3-carboxamide]: the IC50 was over 0.01 µM on BRM and over 0.1 µM at BRG-1.
In the same order, the values of `CO[C@@H]1CCCN(c2cccc(-c3csc(NC(=O)CNC(=O)c4ccn(C(C)(C)C)c4)n3)c2)C1` [Compound 97, (R)-1-(tert-butyl)-N-(2-((4-(3-(3-methoxypiperidin-1-yl)phenyl)thiazol-2-yl)amino)-2-oxoethyl)-1H-pyrrole-3-carboxamide] are over 0.1 µM and over 0.1 µM.
In the same order, the values of `CO[C@H]1CCCN(c2cccc(-c3csc(NC(=O)CNC(=O)c4ccn(C(C)(C)C)c4)n3)c2)C1` [Compound 98, (S)-1-(tert-butyl)-N-(2-((4-(3-(3-methoxypiperidin-1-yl)phenyl)thiazol-2-yl)amino)-2-oxoethyl)-1H-pyrrole-3-carboxamide] are over 0.01 µM and over 0.01 µM.
Consider `CS(=O)(=O)n1ccc(C(=O)NCC(=O)Nc2nc(-c3cccc(N4CCOCC4)c3)cs2)c1` [Compound 99, 1-methylsulfonyl-N-[2-[[4-(3-morpholinophenyl)thiazol-2-yl]amino]-2-oxo-ethyl]pyrrole-3-carboxamide], for which the IC50 at BRM is under 0.01 µM; on BRG-1, over 0.01 µM.
Take `CC(C)(C)n1ccc(C(=O)NCC(=O)Nc2nc(-c3cccc(N4CCOCC4)c3)cs2)c1` [Compound 100, 1-tert-butyl-N-[2-[[4-(3-morpholinophenyl)thiazol-2-yl]amino]-2-oxo-ethyl]pyrrole-3-carboxamide]: the IC50 on BRM and on BRG-1 was over 0.01 µM each time.
For `CS(=O)(=O)n1ccc(C(=O)NCC(=O)Nc2nc(-c3cccc(N4CC5(COC5)C4)c3)cs2)c1` [Compound 101, N-(2-((4-(3-(2-oxa-6-azaspiro[3.3]heptan-6-yl)phenyl)thiazol-2-yl)amino)-2-oxoethyl)-1-(methylsulfonyl)-1H-pyrrole-3-carboxamide], the IC50 on BRM and at BRG-1 was under 0.01 µM in each case.
In the case of `CC(C)(Oc1ccncc1)c1cccc(-c2csc(NC(=O)CNC(=O)c3ccn(S(C)(=O)=O)c3)n2)c1` [Compound 102, 1-(methylsulfonyl)-N-(2-oxo-2-((4-(3-(2-(pyridin-4-yloxy)propan-2-yl)phenyl)thiazol-2-yl)amino)ethyl)-1H-pyrrole-3-carboxamide], the IC50 on BRM and on BRG-1 was over 0.1 µM each time.
On to `CC(Oc1ccccc1)c1cccc(-c2csc(NC(=O)CNC(=O)c3ccn(S(C)(=O)=O)c3)n2)c1` (stereo not drawn) [Compound 103, 1-(methylsulfonyl)-N-(2-oxo-2-((4-(3-(1-phenoxyethyl)phenyl)thiazol-2-yl)amino)ethyl)-1H-pyrrole-3-carboxamide], for which the IC50 on BRM and on BRG-1 was over 0.1 µM in each case.
As to `CS(=O)(=O)n1ccc(C(=O)NCC(=O)Nc2nc(-c3cccc(COc4ccccc4)c3)cs2)c1` [Compound 104, 1-(methylsulfonyl)-N-(2-oxo-2-((4-(3-(phenoxymethyl)phenyl)thiazol-2-yl)amino)ethyl)-1H-pyrrole-3-carboxamide], the IC50 on BRM and on BRG-1 was over 0.01 µM throughout.
Turning to `CS(=O)(=O)n1ccc(C(=O)NCC(=O)Nc2nc(-c3cccc(CO[C@H]4CC[C@H](O)CC4)c3)cs2)c1` [Compound 105, N-(2-((4-(3-((((1R,4R)-4-hydroxycyclohexyl)oxy)methyl)phenyl)thiazol-2-yl)amino)-2-oxoethyl)-1-(methylsulfonyl)-1H-pyrrole-3-carboxamide], the IC50 at BRM was over 0.01 µM; at BRG-1, under 0.01 µM.
In the same order, the values of `CS(=O)(=O)n1ccc(C(=O)NCC(=O)Nc2nc(-c3cccc(OCc4ccncc4)c3)cs2)c1` [Compound 106, 1-(methylsulfonyl)-N-(2-oxo-2-((4-(3-(pyridin-4-ylmethoxy)phenyl)thiazol-2-yl)amino)ethyl)-1H-pyrrole-3-carboxamide] are under 0.01 µM and under 0.01 µM.
As to `CS(=O)(=O)n1ccc(C(=O)NCC(=O)Nc2nc(-c3cccc(COc4ccccn4)c3)cs2)c1` [Compound 107, 1-(methylsulfonyl)-N-(2-oxo-2-((4-(3-((pyridin-2-yloxy)methyl)phenyl)thiazol-2-yl)amino)ethyl)-1H-pyrrole-3-carboxamide], the IC50 at BRM and on BRG-1 was over 0.01 µM throughout.
Regarding `CS(=O)(=O)n1ccc(C(=O)NCC(=O)Nc2nc(-c3cccc(COc4ccncc4)c3)cs2)c1` [Compound 108, 1-(methylsulfonyl)-N-(2-oxo-2-((4-(3-((pyridin-4-yloxy)methyl)phenyl)thiazol-2-yl)amino)ethyl)-1H-pyrrole-3-carboxamide], the IC50 at BRM was under 0.01 µM; at BRG-1, over 0.01 µM.
Regarding `CN1Cc2ccc(-c3csc(NC(=O)CNC(=O)c4ccn(S(C)(=O)=O)c4)n3)cc2CC1=O` [Compound 109, N-(2-((4-(2-methyl-3-oxo-1,2,3,4-tetrahydroisoquinolin-6-yl)thiazol-2-yl)amino)-2-oxoethyl)-1-(methylsulfonyl)-1H-pyrrole-3-carboxamide], the IC50 on BRM and at BRG-1 was over 0.01 µM in each case.
`CS(=O)(=O)n1ccc(C(=O)NCC(=O)Nc2nc(-c3cccc(OCC4COC4)c3)cs2)c1` [Compound 110, 1-(methylsulfonyl)-N-(2-((4-(3-(oxetan-3-ylmethoxy)phenyl)thiazol-2-yl)amino)-2-oxoethyl)-1H-pyrrole-3-carboxamide]: the IC50 at BRM and on BRG-1 was over 0.01 µM in each case.
For the compound `CS(=O)(=O)n1ccc(C(=O)NCC(=O)Nc2nc(C3CCCN(c4ccncc4)C3)cs2)c1` (stereo not drawn) [Compound 111], the IC50 on BRM and at BRG-1 was over 0.1 µM each time.
With `Cn1ccc2ccc(-c3csc(NC(=O)CNC(=O)c4ccn(S(C)(=O)=O)c4)n3)cc2c1=O` [Compound 112, N-(2-((4-(2-methyl-1-oxo-1,2-dihydroisoquinolin-7-yl)thiazol-2-yl)amino)-2-oxoethyl)-1-(methylsulfonyl)-1H-pyrrole-3-carboxamide], the IC50 at BRM and on BRG-1 was under 0.01 µM in each case.
In the case of `CS(=O)(=O)n1ccc(C(=O)NCC(=O)Nc2nc(-c3ccn(-c4ccncc4)n3)cs2)c1` [Compound 113, 1-(methylsulfonyl)-N-(2-oxo-2-((4-(1-(pyridin-4-yl)-1H-pyrazol-3-yl)thiazol-2-yl)amino)ethyl)-1H-pyrrole-3-carboxamide], the IC50 on BRM and at BRG-1 was over 0.1 µM in each case.
Turning to `CS(=O)(=O)n1ccc(C(=O)NCC(=O)Nc2nc(-c3cccc(C4CCN(CC(F)(F)F)CC4)c3)cs2)c1` [Compound 114, 1-(methylsulfonyl)-N-(2-oxo-2-((4-(3-(1-(2,2,2-trifluoroethyl)piperidin-4-yl)phenyl)thiazol-2-yl)amino)ethyl)-1H-pyrrole-3-carboxamide], the IC50 at BRM and at BRG-1 was over 0.1 µM in each case.
With `Cc1nccn1-c1cccc(-c2csc(NC(=O)CNC(=O)c3ccn(S(C)(=O)=O)c3)n2)c1` [Compound 115, N-(2-((4-(3-(2-methyl-1H-imidazol-1-yl)phenyl)thiazol-2-yl)amino)-2-oxoethyl)-1-(methylsulfonyl)-1H-pyrrole-3-carboxamide], the IC50 on BRM and at BRG-1 was over 0.1 µM throughout.
In the case of `CN(C(=O)c1cccc(-c2csc(NC(=O)CNC(=O)c3ccn(S(C)(=O)=O)c3)n2)c1)c1ccccc1` [Compound 116, N-(2-((4-(3-(methyl(phenyl)carbamoyl)phenyl)thiazol-2-yl)amino)-2-oxoethyl)-1-(methylsulfonyl)-1H-pyrrole-3-carboxamide], the IC50 on BRM and at BRG-1 was over 1 µM in each case.
On to `CS(=O)(=O)n1ccc(C(=O)NCC(=O)Nc2nc(-c3cccc(C(=O)Nc4ccncc4)c3)cs2)c1` [Compound 117, 1-(methylsulfonyl)-N-(2-oxo-2-((4-(3-(pyridin-4-ylcarbamoyl)phenyl)thiazol-2-yl)amino)ethyl)-1H-pyrrole-3-carboxamide], for which the IC50 on BRM and on BRG-1 was over 0.01 µM throughout.
Regarding `CN1CC(OCc2cccc(-c3csc(NC(=O)CNC(=O)c4ccn(C(C)(C)C)c4)n3)c2)C1` [Compound 118, 1-(tert-butyl)-N-(2-((4-(3-(((1-methylazetidin-3-yl)oxy)methyl)phenyl)thiazol-2-yl)amino)-2-oxoethyl)-1H-pyrrole-3-carboxamide], the IC50 on BRM and at BRG-1 was over 1 µM throughout.
Regarding `Cn1ccc(OCc2cccc(-c3csc(NC(=O)CNC(=O)c4ccn(C(C)(C)C)c4)n3)c2)n1` [Compound 119, 1-(tert-butyl)-N-(2-((4-(3-(((1-methyl-1H-pyrazol-3-yl)oxy)methyl)phenyl)thiazol-2-yl)amino)-2-oxoethyl)-1H-pyrrole-3-carboxamide], the IC50 on BRM is over 0.01 µM; at BRG-1 it was over 0.1 µM.
On to `COc1cccc(-c2csc(NC(=O)CNC(=O)c3ccn(C(C)(C)C)c3)n2)c1` [Compound 120, 1-(tert-butyl)-N-(2-((4-(3-methoxyphenyl)thiazol-2-yl)amino)-2-oxoethyl)-1H-pyrrole-3-carboxamide], for which the IC50 on BRM was over 0.01 µM; on BRG-1 it was over 0.1 µM.
In the same order, the values of `COc1cccc(-c2csc(NC(=O)CNC(=O)c3ccn(S(C)(=O)=O)c3)n2)c1` [Compound 121, N-(2-((4-(3-methoxyphenyl)thiazol-2-yl)amino)-2-oxoethyl)-1-(methylsulfonyl)-1H-pyrrole-3-carboxamide] are over 0.01 µM and over 0.01 µM.
In the same order, the values of `CC(C)(C)n1ccc(C(=O)NCC(=O)Nc2nc(-c3cccc(OCC4COC4)c3)cs2)c1` [Compound 122, 1-(tert-butyl)-N-(2-((4-(3-(oxetan-3-ylmethoxy)phenyl)thiazol-2-yl)amino)-2-oxoethyl)-1H-pyrrole-3-carboxamide] are over 0.01 µM and over 0.01 µM.
